{"source": "patent US7119062B1", "about": "“Methods and compositions for improved articular surgery using collagen” (Neucoll, Inc., priority 2001, dated 2006)", "key": {"[1]": {"details": "standard mutagenicity and clastogenicity assays; cited from earlier work"}, "[2]": {"details": "cited from earlier work"}, "[3]": {"details": "cited from earlier work", "remark": "listed apart in the source"}, "research monkeys": {"test_system": "research monkeys", "details": "cited from earlier work"}, "mice": {"test_system": "mice", "details": "cited from earlier work"}, "[4]": {"details": "adults; cited from earlier work"}, "[5]": {"assay": "Anesthetic effect of lidocaine in intra-articular collagen injections", "type": "in vivo", "details": "1 mL intra-articular injections of collagen formulation with 0.3% lidocaine"}, "[6]": {"details": "in vivo"}}, "note": "Where two headings read alike, the source gives them in different places.", "data": [{"molecule": "CCCCN1CCCC[C@H]1C(=O)Nc1c(C)cccc1C", "note": "[levobupivacaine]", "values": [{"measurement": "genotoxicity", "setting": "[1]", "value": "non-genotoxic"}]}, {"molecule": "CCCCN1CCCCC1C(=O)Nc1c(C)cccc1C", "note": "(stereo not shown) [bupivacaine]", "values": [{"measurement": "change in VAS pain scores at 1 hour", "setting": "[2]; 12.5 mg intra-articular, knees of osteoarthritis patients, 1 hour post-administration", "value": "statistically significant (p=0.007) fall"}, {"measurement": "effect on VAS pain scores after 1 hour", "setting": "[2]; 12.5 mg intra-articular, knees of osteoarthritis patients, after 1 hour", "value": "no significant effects"}, {"measurement": "duration of analgesia", "setting": "[2]; intra-articular injection", "value": "2 to 12", "unit": "h"}, {"measurement": "intra-articular dose that produces analgesia of the joint", "setting": "[2]; intra-articular", "value": "approximately 10 mg"}, {"measurement": "duration of pain relief", "setting": "[2]; local anesthetic injected into the operated joint at the end of arthroscopy", "value": "about 6 hours"}, {"measurement": "maximum dose", "setting": "[3]; over a 24 hour period", "value": 400, "unit": "mg"}, {"measurement": "therapeutic apparently safe dose", "setting": "[3]; single bolus", "value": "approximately 225 mg"}, {"measurement": "single dose that produced seizures", "setting": "research monkeys", "value": 4.4, "unit": "mg/kg"}, {"measurement": "LD50", "setting": "mice; intravenous", "value": "6 to 8", "unit": "mg/kg"}, {"measurement": "LD50", "setting": "mice; subcutaneous", "value": "38 to 54", "unit": "mg/kg"}, {"measurement": "half life", "setting": "[4]", "value": "approximately 3.5 hours"}]}, {"molecule": "CCN(CC)CC(=O)Nc1c(C)cccc1C", "note": "[lidocaine]", "values": [{"measurement": "dosage required to achieve the same clinical efficacy as bupivacaine", "setting": "[2]; equivalent indications, relative to bupivacaine", "value": "2 to 10", "unit": "times"}, {"measurement": "duration of anesthetic effects of lidocaine", "setting": "[5]", "value": "less than an hour"}, {"measurement": "duration of anesthetic effects of lidocaine, in most cases", "setting": "[5]; in most cases", "value": "less than 10 minutes"}]}, {"molecule": "collagen", "values": [{"measurement": "time collagen remains in the knee joints", "setting": "[6]", "value": "up to 8 weeks"}]}]}
